In PubChem BioAssay AID330 (DTP/NCI, 2004):
“And” between values parts separate entries of the source, which are not always exact repeats. Equal entries are not always repeated. Inconclusive results and toxic doses are left out. Rule for the calls: active = survival T/C of 150% or more; inactive = T/C below 125% in these data.

Test system: P388 leukemia ip, CD2F1 mice, survival T/C
Assay: NCI In Vivo Anticancer Drug Screen. Data for tumor model P388 Leukemia (intraperitoneal) in CD2F1 (CDF1) mice
Details: endpoint: median survival time, higher = longer survival
Method in brief: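 Mice carrying the transplanted tumor received test compound or vehicle. Survival was recorded in each group, and the value is the treated-group measurement divided by that of the vehicle-treated control group.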

[1] = dose: 50.0 mg/kg/injection, schedule: Q01DX005 (ip), vehicle: saline with Tween-80
[2] = dose: 100.0 mg/kg/injection, schedule: Q01DX005 (ip), vehicle: saline with Tween-80
[3] = dose: 200.0 mg/kg/injection, schedule: Q01DX005 (ip), vehicle: saline with Tween-80
[4] = dose: 50.0 mg/kg/injection, schedule: Q01DX009 (ip), vehicle: saline with Tween-80
[5] = dose: 100.0 mg/kg/injection, schedule: Q01DX009 (ip), vehicle: saline with Tween-80
[6] = dose: 200.0 mg/kg/injection, schedule: Q01DX009 (ip), vehicle: saline with Tween-80
[7] = dose: 50.0 mg/kg/injection, schedule: Q01DX005 (ip), vehicle: Klucel (hydroxypropylcellulose) (HPC)
[8] = dose: 100.0 mg/kg/injection, schedule: Q01DX005 (ip), vehicle: Klucel (hydroxypropylcellulose) (HPC)
[9] = dose: 200.0 mg/kg/injection, schedule: Q01DX005 (ip), vehicle: Klucel (hydroxypropylcellulose) (HPC)
[10] = dose: 25.0 mg/kg/injection, schedule: Q01DX009 (ip), vehicle: Klucel (hydroxypropylcellulose) (HPC)
[11] = dose: 50.0 mg/kg/injection, schedule: Q01DX009 (ip), vehicle: Klucel (hydroxypropylcellulose) (HPC)
[12] = dose: 100.0 mg/kg/injection, schedule: Q01DX009 (ip), vehicle: Klucel (hydroxypropylcellulose) (HPC)

Measured: T/C

Cc1ccc(S(=O)(=O)/C=C/c2ccc([N+](=O)[O-])o2)cc1
inactive: dose: 50.0 mg/kg/injection, schedule: Q01DX009 (ip), vehicle: suspension in saline 108 % of control | dose: 100.0 mg/kg/injection, schedule: Q01DX009 (ip), vehicle: suspension in saline 104 % of control | dose: 200.0 mg/kg/injection, schedule: Q01DX009 (ip), vehicle: suspension in saline 104 % of control

C=CN1C(=O)NC2(CCCCC2)C1=O
inactive: dose: 25.0 mg/kg/injection, schedule: Q04DX003 (ip), vehicle: saline with Tween-80 100 % of control | dose: 50.0 mg/kg/injection, schedule: Q04DX003 (ip), vehicle: saline with Tween-80 100 % of control | dose: 100.0 mg/kg/injection, schedule: Q04DX003 (ip), vehicle: saline with Tween-80 90 % of control

C/C(=C1/N=C(c2ccccc2)OC1=O)c1ccccc1
inactive: [1] 98 % of control | [2] 96 % of control | [3] 98 % of control

[O-][n+]1ccccc1[S][Sn]([Cl])([Cl])[S]c1cccc[n+]1[O-]
inactive: [4] 94 % of control | [5] 106 % of control | [6] 102 % of control

Oc1ccc(C2c3ccccc3Oc3ccccc32)c2cccnc12
inactive: [7] 89 % of control | [8] 89 % of control | [9] 86 % of control

COc1cc(-c2oc3ccccc3c(=O)c2O)cc(OC)c1OC
inactive: [4] 93 % of control | [5] 91 % of control | [6] 93 % of control

CC(C)(C)N(O)N=O.CC(C)(C)N(O)N=O.[Cu]
inactive: dose: 6.25 mg/kg/injection, schedule: Q01DX001 (ip), vehicle: saline with Tween-80 103 % of control

C=C1C(=O)C23CC[C@H]4C(C)(CCC[C@]4(C)C(=O)O)[C@@H]2CCC1C3 (stereo partly specified)
inactive: dose: 3.75 mg/kg/injection, schedule: Q01DX005 (ip), vehicle: Klucel (hydroxypropylcellulose) (HPC) 86 % of control | dose: 7.5 mg/kg/injection, schedule: Q01DX005 (ip), vehicle: Klucel (hydroxypropylcellulose) (HPC) 91 % of control | dose: 15.0 mg/kg/injection, schedule: Q01DX005 (ip), vehicle: Klucel (hydroxypropylcellulose) (HPC) 87 % of control | dose: 30.0 mg/kg/injection, schedule: Q01DX005 (ip), vehicle: Klucel (hydroxypropylcellulose) (HPC) 98 % of control

CN(C(=O)c1cc2c(cc1Br)OCO2)c1ccccc1
inactive: dose: 25.0 mg/kg/injection, schedule: Q01DX009 (ip), vehicle: other 100 % of control | dose: 50.0 mg/kg/injection, schedule: Q01DX009 (ip), vehicle: other 98 % of control | dose: 100.0 mg/kg/injection, schedule: Q01DX009 (ip), vehicle: other 111 % of control

C=C1CC2C3CCC=C3C(c3ccc(OC)cc3)C2C1=O (stereo unspecified)
inactive: dose: 25.0 mg/kg/injection, schedule: Q01DX001 (ip), vehicle: Klucel (hydroxypropylcellulose) (HPC) 112 % of control | dose: 50.0 mg/kg/injection, schedule: Q01DX001 (ip), vehicle: Klucel (hydroxypropylcellulose) (HPC) 109 % of control | dose: 100.0 mg/kg/injection, schedule: Q01DX001 (ip), vehicle: Klucel (hydroxypropylcellulose) (HPC) 107 % of control and 111 % of control | dose: 200.0 mg/kg/injection, schedule: Q01DX001 (ip), vehicle: Klucel (hydroxypropylcellulose) (HPC) 106 % of control

N#CCSCC(NC(=O)c1ccccc1)C(=O)O (stereo unspecified)
inactive: dose: 50.0 mg/kg/injection, schedule: Q01DX005 (ip), vehicle: saline 100 % of control | dose: 100.0 mg/kg/injection, schedule: Q01DX005 (ip), vehicle: saline 87 % of control | dose: 200.0 mg/kg/injection, schedule: Q01DX005 (ip), vehicle: saline 97 % of control

NC(=O)C(CCO)NC(=O)OCc1ccccc1 (stereo unspecified)
inactive: dose: 4.0 mg/kg/injection, schedule: Q01DX009 (ip), vehicle: other 101 % of control | dose: 8.0 mg/kg/injection, schedule: Q01DX009 (ip), vehicle: other 106 % of control | dose: 16.0 mg/kg/injection, schedule: Q01DX009 (ip), vehicle: other 101 % of control | dose: 32.0 mg/kg/injection, schedule: Q01DX009 (ip), vehicle: other 101 % of control and 105 % of control | dose: 64.0 mg/kg/injection, schedule: Q01DX009 (ip), vehicle: other 97 % of control | dose: 128.0 mg/kg/injection, schedule: Q01DX009 (ip), vehicle: other 88 % of control | dose: 256.0 mg/kg/injection, schedule: Q01DX009 (ip), vehicle: other 99 % of control

O=S(=O)(NCCNS(=O)(=O)c1ccccc1)c1ccccc1
inactive: [10] 90 % of control | [11] 100 % of control | [12] 90 % of control | dose: 200.0 mg/kg/injection, schedule: Q01DX009 (ip), vehicle: Klucel (hydroxypropylcellulose) (HPC) 91 % of control

O=C(c1cccc2c1Oc1ccccc1S2)c1cccc2c1Oc1ccccc1S2
inactive: [1] 113 % of control | [2] 103 % of control | [3] 103 % of control

CCOC1(OCC)Cc2nc3ccccc3cc21
inactive: dose: 50.0 mg/kg/injection, schedule: Q01DX005 (ip), vehicle: saline + Tween-80 + alcohol 106 % of control | dose: 100.0 mg/kg/injection, schedule: Q01DX005 (ip), vehicle: saline + Tween-80 + alcohol 109 % of control | dose: 200.0 mg/kg/injection, schedule: Q01DX005 (ip), vehicle: saline + Tween-80 + alcohol 106 % of control

CNc1nc(=O)n(-c2ccccc2)c(Cl)c1CCO
inactive: dose: 75.0 mg/kg/injection, schedule: Q01DX001 (ip), vehicle: Klucel (hydroxypropylcellulose) (HPC) 104 % of control | dose: 150.0 mg/kg/injection, schedule: Q01DX001 (ip), vehicle: Klucel (hydroxypropylcellulose) (HPC) 101 % of control | dose: 300.0 mg/kg/injection, schedule: Q01DX001 (ip), vehicle: Klucel (hydroxypropylcellulose) (HPC) 100 % of control

CCOc1c(N=Nc2cccc(Cl)c2)c(C)nn1C(=S)SC
inactive: dose: 60.0 mg/kg/injection, schedule: Q01DX005 (ip), vehicle: Klucel + Tween-80 94 % of control | dose: 120.0 mg/kg/injection, schedule: Q01DX005 (ip), vehicle: Klucel + Tween-80 98 % of control | dose: 240.0 mg/kg/injection, schedule: Q01DX005 (ip), vehicle: Klucel + Tween-80 99 % of control

C=CCCCC/C=C/C=C/C#CC#C/C=C/COC(C)=O
inactive: dose: 12.5 mg/kg/injection, schedule: Q01DX009 (ip), vehicle: Klucel (hydroxypropylcellulose) (HPC) 100 % of control | [10] 106 % of control | [11] 106 % of control | [12] 106 % of control

O=Cc1ccc(N2OC3C(=O)N(c4ccccc4)C(=O)C3C2c2ccc([N+](=O)[O-])cc2)cc1 (stereo unspecified)
inactive: [7] 96 % of control | [8] 92 % of control | [9] 97 % of control

CC(C)(S)[C@H]1NC(=O)NC1=O
inactive: [7] 99 % of control | [8] 99 % of control | [9] 103 % of control

NC(N)=NCCCC(N)C(=O)CC(Cc1ccccc1)C(=O)O (stereo unspecified)
inactive: dose: 8.8 mg/kg/injection, schedule: Q01DX005 (ip), vehicle: water 104 % of control | dose: 17.0 mg/kg/injection, schedule: Q01DX005 (ip), vehicle: water 108 % of control | dose: 34.0 mg/kg/injection, schedule: Q01DX005 (ip), vehicle: water 106 % of control | dose: 68.0 mg/kg/injection, schedule: Q01DX005 (ip), vehicle: water 100 % of control

O=C(OCC1C=C(OC(=O)c2ccccc2)C(=O)C(OC(=O)c2ccccc2)O1)c1ccccc1 (stereo unspecified)
inactive: dose: 6.25 mg/kg/injection, schedule: Q01DX009 (ip), vehicle: saline with Tween-80 98 % of control | dose: 12.5 mg/kg/injection, schedule: Q01DX009 (ip), vehicle: saline with Tween-80 94 % of control | dose: 25.0 mg/kg/injection, schedule: Q01DX009 (ip), vehicle: saline with Tween-80 86 % of control | [4] 89 % of control | [5] 93 % of control | [6] 102 % of control
